From patent US20230085307A1, “PYRIDAZINONE COMPOUND AND HERBICIDE” (NISSAN CHEMICAL CORPORATION, priority 2019, published 2023)

Key:
barnyard grass = assay: Test Example 5: herbicidal effect by foliage application, plastic box (Table 20, symbol H); format: in vivo, barnyard grass (Echinochloa crus-galli); conditions: foliage application, 320 g/ha, three weeks after application
How it was run: (§1)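 Plants were sown into sterilized diluvial soil under about 1.5 cm cover and kept in a greenhouse at 25° C. to 30° C. Fourteen days on, foliage received an even spray of the diluted emulsion. Herbicidal or crop effect was judged three weeks afterwards.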

late watergrass = assay: Test Example 1: herbicidal activity, application before weed generation under submerged conditions (Table 16, symbol A); format: in vivo, late watergrass (Echinochloa oryzicola); conditions: amount of applied herbicide 320 g/ha
How it was run: (§2)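 Emulsion formulation, water-diluted to set dose, was put onto the flooded surface (4 cm depth, alluvial soil) the same day weeds were sown and 2.5-leaf rice transplanted. After 3 weeks at 25-30 °C under glass, each species was rated 0 (≤5% kill) to 5 (≥90% kill).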

windgrass [1] = assay: Test Example 5: herbicidal effect by foliage application, plastic box (Table 20, symbol L); format: in vivo, windgrass (Apera spica-venti); conditions: foliage application, 320 g/ha, three weeks after application
How it was run: as §1

persian speedwell = assay: Test Example 4: herbicidal effect by soil treatment (Table 19, symbol R); format: in vivo, Persian speedwell (Veronica persica); conditions: amount of applied herbicide 320 g/ha
How it was run: (§3)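 Pre-emergence style soil spray: seeds under ~1.5 cm sterilized diluvial soil received a uniform coat of emulsion diluted to the predetermined herbicide amount. Greenhouse 25–30° C; readout at week three on previously defined criteria.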

southern crabgrass [2] = assay: Test Example 5: herbicidal effect by foliage application, plastic box (Table 20, symbol F); format: in vivo, southern crabgrass (Digitaria ciliaris); conditions: foliage application, 320 g/ha, three weeks after application
How it was run: as §1

oval-leafed pondweed [3] = assay: Test Example 1: herbicidal activity, application before weed generation under submerged conditions (Table 16, symbol C); format: in vivo, oval-leafed pondweed (Monochoria vaginalis); conditions: amount of applied herbicide 320 g/ha
How it was run: as §2

Chinese sprangletop = assay: Test Example 3: herbicidal effect by foliage application, Wagner pot (Table 18, symbol D); format: in vivo, chinese sprangletop (Leptochloa chinensis); conditions: for herbicidal effect on Chinese sprangletop (D): 320 g/ha
How it was run: (§4)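 Plants were sown in alluvial soil held under 0.1–0.5 cm standing water and grown 14 days in a greenhouse at 25–30 °C. An emulsifiable formulation, water-diluted to the set dose, was then sprayed onto the foliage, and effects were scored three weeks later using previously defined criteria.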

oval-leafed pondweed [4] = assay: Test Example 2: herbicidal activity, application during weed generation under submerged conditions (Table 17, symbol C); format: in vivo, oval-leafed pondweed (Monochoria vaginalis); conditions: AAH 320 g/ha; application during weed generation, submerged conditions
How it was run: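 Herbicide emulsion, diluted with water to the chosen amount, is applied onto 4 cm floodwater over alluvial soil where the weeds were co-sown and raised at 25–30° C. Application timing: 1–2 leaves. Assessment: three weeks afterwards.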

green foxtail = assay: Test Example 5: herbicidal effect by foliage application, plastic box (Table 20, symbol G); format: in vivo, green foxtail (Setaria viridis); conditions: foliage application, 320 g/ha, three weeks after application
How it was run: as §1

redroot pigweed = assay: Test Example 4: herbicidal effect by soil treatment (Table 19, symbol N); format: in vivo, redroot pigweed (Amaranthus retroflexus); conditions: amount of applied herbicide 320 g/ha
How it was run: as §3

wild oat = assay: Test Example 5: herbicidal effect by foliage application, plastic box (Table 20, symbol I); format: in vivo, wild oat (Avena fatua); conditions: foliage application, 320 g/ha, three weeks after application
How it was run: as §1

southern crabgrass [5] = assay: Test Example 4: herbicidal effect by soil treatment (Table 19, symbol F); format: in vivo, southern crabgrass (Digitaria ciliaris); conditions: amount of applied herbicide 320 g/ha
How it was run: as §3

Japanese bulrush = assay: Test Example 1: herbicidal activity, application before weed generation under submerged conditions (Table 16, symbol B); format: in vivo, Japanese bulrush (Schoenoplectus juncoides); conditions: amount of applied herbicide 320 g/ha
How it was run: as §2

rice flat sedge = assay: Test Example 3: herbicidal effect by foliage application, Wagner pot (Table 18, symbol E); format: in vivo, rice flat sedge (Cyperus iria); conditions: for herbicidal effect on rice flat sedge (E): 320 g/ha
How it was run: as §4

false cleavers = assay: Test Example 4: herbicidal effect by soil treatment (Table 19, symbol Q); format: in vivo, false cleavers (Galium spurium); conditions: amount of applied herbicide 320 g/ha
How it was run: as §3

lambsquarters = assay: Test Example 5: herbicidal effect by foliage application, plastic box (Table 20, symbol O); format: in vivo, lambsquarters (Chenopodium album); conditions: foliage application, 320 g/ha, three weeks after application
How it was run: as §1

windgrass [6] = assay: Test Example 4: herbicidal effect by soil treatment (Table 19, symbol L); format: in vivo, windgrass (Apera spica-venti); conditions: amount of applied herbicide 320 g/ha
How it was run: as §3

[7] = amount of applied herbicide 320 g/ha

Compound	H: barnyard grass, herbicidal effect grade (barnyard grass)	Herbicidal effect, A: late watergrass (late watergrass)	L: windgrass, herbicidal effect grade (windgrass [1])	R: persian speedwell, herbicidal effect grade (persian speedwell)	F: southern crabgrass, herbicidal effect grade (southern crabgrass [2])	Herbicidal effect, C: oval-leafed pondweed (oval-leafed pondweed [3])	herbicidal effect on Chinese sprangletop (D) (Chinese sprangletop)	herbicidal effect rating, C: oval-leafed pondweed (oval-leafed pondweed [4])	G: green foxtail, herbicidal effect grade (green foxtail)	N: redroot pigweed, herbicidal effect grade (redroot pigweed)	I: wild oat, herbicidal effect grade (wild oat)	F: southern crabgrass, herbicidal effect grade (southern crabgrass [5])	Herbicidal effect, B: Japanese bulrush (Japanese bulrush)	herbicidal effect on rice flat sedge (E) (rice flat sedge)	O: lambsquarters, herbicidal effect grade (lambsquarters)	L: windgrass, herbicidal effect grade (windgrass [6])	other results
CCOc1cc(F)ccc1-c1sc2cc(Cl)ccc2c1-c1c(O)c(C)nn(C)c1=O [3-045]	5 (Herbicidal rate of 90% or more (almost completely withered))	2 (Herbicidal rate of 20% or more and less than 40%)	5 (Herbicidal rate of 90% or more (almost completely withered))	3 (Herbicidal rate of 40% or more and less than 70%)	5 (Herbicidal rate of 90% or more (almost completely withered))	0 (Herbicidal rate of 5% or less (almost no effect))	4 (Herbicidal rate of 70% or more and less than 90%)	0 (Herbicidal rate of 5% or less (almost no effect))	5 (Herbicidal rate of 90% or more (almost completely withered))	3 (Herbicidal rate of 40% or more and less than 70%)	5 (Herbicidal rate of 90% or more (almost completely withered))	5 (Herbicidal rate of 90% or more (almost completely withered))	1 (Herbicidal rate of 5% or more and less than 20%)	5 (Herbicidal rate of 90% or more (almost completely withered))	3 (Herbicidal rate of 40% or more and less than 70%)	–	Q: false cleavers, herbicidal effect grade (false cleavers): 4 (Herbicidal rate of 70% or more and less than 90%)
COc1ccc2c(-c3c(O)c(Cl)nn(C)c3=O)c(-c3ccccc3OC)sc2c1 [Compound No. 3-088, 6-chloro-5-hydroxy-4-(6-methoxy-2-(2-methoxyphenyl)benzo[b]thiophen-3-yl)-2-methylpyridazin-3(2H)-one]	4 (Herbicidal rate of 70% or more and less than 90%)	5 (Herbicidal rate of 90% or more (almost completely withered))	3 (Herbicidal rate of 40% or more and less than 70%)	4 (Herbicidal rate of 70% or more and less than 90%)	0 (Herbicidal rate of 5% or less (almost no effect))	5 (Herbicidal rate of 90% or more (almost completely withered))	4 (Herbicidal rate of 70% or more and less than 90%)	3 (Herbicidal rate of 40% or more and less than 70%)	5 (Herbicidal rate of 90% or more (almost completely withered))	5 (Herbicidal rate of 90% or more (almost completely withered))	3 (Herbicidal rate of 40% or more and less than 70%)	4 (Herbicidal rate of 70% or more and less than 90%)	5 (Herbicidal rate of 90% or more (almost completely withered))	5 (Herbicidal rate of 90% or more (almost completely withered))	4 (Herbicidal rate of 70% or more and less than 90%)	0 (Herbicidal rate of 5% or less (almost no effect))	–
COc1ccccc1-c1sc2cc(OCC(F)(F)F)ccc2c1-c1c(O)c(C)nn(C)c1=O [Compound No. 3-116, 5-hydroxy-4-(2-(2-methoxyphenyl)-6-(2,2,2-trifluoroethoxy)benzo[b]thiophen-3-yl)-2,6-di methylpyridazin-3 (2H)-one]	5 (Herbicidal rate of 90% or more (almost completely withered))	5 (Herbicidal rate of 90% or more (almost completely withered))	5 (Herbicidal rate of 90% or more (almost completely withered))	5 (Herbicidal rate of 90% or more (almost completely withered))	5 (Herbicidal rate of 90% or more (almost completely withered))	5 (Herbicidal rate of 90% or more (almost completely withered))	5 (Herbicidal rate of 90% or more (almost completely withered))	4 (Herbicidal rate of 70% or more and less than 90%)	5 (Herbicidal rate of 90% or more (almost completely withered))	5 (Herbicidal rate of 90% or more (almost completely withered))	5 (Herbicidal rate of 90% or more (almost completely withered))	5 (Herbicidal rate of 90% or more (almost completely withered))	5 (Herbicidal rate of 90% or more (almost completely withered))	5 (Herbicidal rate of 90% or more (almost completely withered))	5 (Herbicidal rate of 90% or more (almost completely withered))	4 (Herbicidal rate of 70% or more and less than 90%)	–
COc1ccccc1-c1sc2c(Cl)c(OC)ccc2c1-c1c(O)c(C)nn(C)c1=O [Compound No. 7-001, 4-(7-chloro-6-methoxy-2-(2-methoxyphenyl)benzo[b]thiophen-3-yl)-5-hydroxy-2,6-dimeth ylpyridazin-3-(2H)-one]	–	3 (Herbicidal rate of 40% or more and less than 70%)	–	5 (Herbicidal rate of 90% or more (almost completely withered))	–	2 (Herbicidal rate of 20% or more and less than 40%)	–	3 (Herbicidal rate of 40% or more and less than 70%)	–	5 (Herbicidal rate of 90% or more (almost completely withered))	–	0 (Herbicidal rate of 5% or less (almost no effect))	3 (Herbicidal rate of 40% or more and less than 70%)	–	–	0 (Herbicidal rate of 5% or less (almost no effect))	herbicidal effect on barnyard grass (H) (barnyard grass): 5 (Herbicidal rate of 90% or more (almost completely withered)); herbicidal effect on windgrass (L) (windgrass [1]): 5 (Herbicidal rate of 90% or more (almost completely withered)); herbicidal effect on southern crabgrass (F) (southern crabgrass [2]): 0 (Herbicidal rate of 5% or less (almost no effect)); Herbicidal effect on D (Chinese sprangletop), foliage application (Chinese sprangletop; [7]): 1 (Herbicidal rate of 5% or more and less than 20%); herbicidal effect on green foxtail (G) (green foxtail): 4 (Herbicidal rate of 70% or more and less than 90%); herbicidal effect on wild oat (I) (wild oat): 0 (Herbicidal rate of 5% or less (almost no effect)); Herbicidal effect on E (rice flat sedge), foliage application (rice flat sedge; [7]): 4 (Herbicidal rate of 70% or more and less than 90%); herbicidal effect on lambsquarters (O) (lambsquarters): 4 (Herbicidal rate of 70% or more and less than 90%)
